Measured values as given in patent US9126976B2 (Merck Sharp & Dohme Corp., priority 2011, dated 2015).
Where two headings read alike, the source gives them in different places.

Molecular target: CETP (Homo sapiens (Human), UniProt P11597)
Assay: Scintillation Proximity Assay (SPA) for CETP activity
Format: biochemical
Description: Protocol: Scintillation Proximity Assay (SPA) for CETP Activity
First, low density lipoprotein (LDL) (Meridian) was biotinylated by incubating LDL with biotin for 1 hour on ice, after which it was dialyzed to remove free biotin. Then compounds at varying concentrations were incubated with 15 nM CETP (reagent production group, In Vitro Pharmacology, MRL Rahway) and 50 ug/ml of the biotinylated LDL in 50 mM HEPES, 150 mM NaCl, pH 7.4, for 1 hour at 37° C. The reaction was started by adding 3H-cholesterol ester high density lipoprotein (HDL) (American Radiochemicals Corp) at a concentration of ˜0.6 nM. The reaction proceeded for 2 hours at 37° C., after which time it was quenched by the addition of 12% acetic acid. PVT streptavadin-coated scintillation proximity beads, which had been brought to room temperature, were then added at a concentration of 4 mg/ml. The assay was then mixed and counted after one half hour in a Microbeta plate reader.

Chain of CETP (P11597 18-493): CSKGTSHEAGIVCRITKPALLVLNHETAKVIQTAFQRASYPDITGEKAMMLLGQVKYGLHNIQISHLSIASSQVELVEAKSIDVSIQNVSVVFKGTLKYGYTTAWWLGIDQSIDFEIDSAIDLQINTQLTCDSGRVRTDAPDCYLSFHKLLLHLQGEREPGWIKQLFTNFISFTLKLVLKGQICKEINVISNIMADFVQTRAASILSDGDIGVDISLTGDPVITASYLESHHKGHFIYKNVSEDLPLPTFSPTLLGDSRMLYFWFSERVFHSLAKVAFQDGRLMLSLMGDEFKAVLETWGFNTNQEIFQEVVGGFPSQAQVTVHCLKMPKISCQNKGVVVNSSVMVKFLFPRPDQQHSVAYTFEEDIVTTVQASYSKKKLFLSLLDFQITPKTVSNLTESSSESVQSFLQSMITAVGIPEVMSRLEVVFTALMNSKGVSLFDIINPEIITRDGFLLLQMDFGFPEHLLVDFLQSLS

O[C@H](CN1c2ccccc2N(Cc2cccc(OC(F)(F)F)c2)C[C@H]1c1cccc(C(F)(F)F)c1)C(F)(F)F [Example 10]
IC50 (read-out: SPA IC50): 0.009 µM

O[C@H](CN1c2ccccc2N(Cc2cccc(OC(F)(F)F)c2)C[C@H]1c1ccc(C(F)(F)F)cc1)C(F)(F)F [Example 11]
IC50 (read-out: SPA IC50): 0.004 µM

C[C@@H](c1cccc(C(F)(F)F)c1)N1C[C@@H](c2cccc(C(F)(F)F)c2)N(C[C@@H](O)C(F)(F)F)c2ccccc21 [Example 12]
IC50 (read-out: SPA IC50): 0.028 µM

C[C@H](c1cccc(C(F)(F)F)c1)N1C[C@@H](c2cccc(C(F)(F)F)c2)N(C[C@@H](O)C(F)(F)F)c2ccccc21 [Example 13, (R)-1,1,1-trifluoro-3-((R)-2-(3-(trifluoromethyl)phenyl-4-((R)-1-(3-trifluoromethyl)phenyl)ethyl)-3,4-dihydroquinoxalin-1(2H)-yl)propan-2-ol]
IC50 (read-out: SPA IC50): 0.01 µM

C[C@@H](c1ccccc1)N1C[C@@H](c2cccc(C(F)(F)F)c2)N(C[C@@H](O)C(F)(F)F)c2ccccc21 [Example 14]
IC50 (read-out: SPA IC50): 1.46 µM

C[C@H](c1ccccc1)N1C[C@@H](c2cccc(C(F)(F)F)c2)N(C[C@@H](O)C(F)(F)F)c2ccccc21 [Example 15]
IC50 (read-out: SPA IC50): 0.014 µM

COC(=O)c1cccc([C@@H]2CN(Cc3cccc(OC(F)(F)F)c3)c3ccccc3N2C[C@@H](O)C(F)(F)F)c1 [Example 16]
IC50 (read-out: SPA IC50): 0.027 µM

O[C@H](CN1c2ccccc2N(Cc2cccc(OC(F)(F)F)c2)C[C@H]1c1cccc(OC(F)(F)C(F)F)c1)C(F)(F)F [Example 18]
IC50 (read-out: SPA IC50): 0.015 µM

CNC(=O)c1cccc(C2CN(Cc3cccc(OC(F)(F)F)c3)c3ccccc3N2C[C@@H](O)C(F)(F)F)c1 (stereo partly drawn) [Example 19, N-methyl-3-{1-[(R)-3,3,3-trifluoro-2-hydroxypropyl]-4-[3-(trifluoro-methoxy)benzyl]-1,2,3,4-tetrahydroquinoxalin-2-yl}benzamide]
IC50 (read-out: SPA IC50): 0.09 µM

COc1cccc([C@@H]2CN(Cc3cccc(OC(F)(F)F)c3)c3ccccc3N2C[C@@H](O)C(F)(F)F)c1 [Example 20]
IC50 (read-out: SPA IC50): 0.078 µM

O[C@H](CN1c2ccccc2N(Cc2cccc(OC(F)(F)F)c2)C[C@H]1c1cccc(OC(F)(F)F)c1)C(F)(F)F [Example 21]
IC50 (read-out: SPA IC50): 0.019 µM

O[C@H](CN1c2ccccc2N(Cc2cccc(OC(F)(F)F)c2)C[C@H]1c1cccnc1)C(F)(F)F [Example 22]
IC50 (read-out: SPA IC50): 0.258 µM

CS(=O)(=O)c1ccc([C@@H]2CN(Cc3cccc(OC(F)(F)F)c3)c3ccccc3N2C[C@@H](O)C(F)(F)F)cc1 [Example 23]
IC50 (read-out: SPA IC50): 0.096 µM

N#Cc1cccc([C@@H]2CN(Cc3cccc(OC(F)(F)F)c3)c3ccccc3N2C[C@@H](O)C(F)(F)F)c1 [Example 24]
IC50 (read-out: SPA IC50): 0.098 µM

O[C@H](CN1c2ccccc2N(Cc2cccc(OC(F)(F)F)c2)C[C@H]1c1cc(C(F)(F)F)cc(C(F)(F)F)c1)C(F)(F)F [Example 25]
IC50 (read-out: SPA IC50): 0.77 µM

O[C@H](CN1c2ccccc2N(Cc2cccc(OC(F)(F)F)c2)C[C@H]1c1ccc(C(F)(F)F)nc1)C(F)(F)F [Example 26]
IC50 (read-out: SPA IC50): 0.024 µM

CN(C)c1ncc([C@@H]2CN(Cc3cccc(OC(F)(F)F)c3)c3ccccc3N2C[C@@H](O)C(F)(F)F)cn1 [Example 27]
IC50 (read-out: SPA IC50): 0.03 µM

Cc1cc([C@@H]2CN(Cc3cccc(OC(F)(F)F)c3)c3ccccc3N2C[C@@H](O)C(F)(F)F)n(C)n1 [Example 28]
IC50 (read-out: SPA IC50): 0.39 µM

O[C@H](CN1c2ccccc2N(Cc2cc(F)cc(C(F)(F)F)c2)C[C@H]1c1ccccc1)C(F)(F)F [Example 29, (R)-3-((R)-4-(3-fluoro-5-(trifluoromethyl)benzyl)-2-phenyl-3,4-dihydroquinoxalin-1(2H)-yl)-1,1,1-trifluoropropan-2-ol]
IC50 (Table 1, read-out: IC50): 0.105 µM

O[C@H](CN1c2ccccc2N(Cc2cccc(Cl)c2)C[C@H]1c1ccccc1)C(F)(F)F [Example 30, (R)-3-((R)-4-(3-chlorobenzyl)-2-phenyl-3,4-dihydroquinoxalin-1(2H)-yl)-1,1,1-trifluoropropan-2-ol]
IC50 (Table 1, read-out: IC50): 1.4 µM

O[C@H](CN1c2ccccc2N(Cc2cc(Cl)cc(Cl)c2)C[C@H]1c1ccccc1)C(F)(F)F [Example 31, (R)-3-((R)-4-(3,5-dichlorobenzyl)-2-phenyl-3,4-dihydroquinoxalin-1(2H)-yl)-1,1,1-trifluoropropan-2-ol]
IC50 (Table 1, read-out: IC50): 2.76 µM

O[C@H](CN1c2ccccc2N(Cc2cc(Cl)cc(Cl)c2)C[C@H]1c1cccc(C(F)(F)F)c1)C(F)(F)F [Example 32, (R)-3-((R)-4-(3,5-dichlorobenzyl)-2-(3-(trifluoromethyl)phenyl)-3,4-dihydroquinoxalin-1(2H)-yl)-1,1,1-trifluoro propan-2-ol]
IC50 (Table 1, read-out: IC50): 0.012 µM

Cc1ccccc1CN1C[C@@H](c2cccc(C(F)(F)F)c2)N(C[C@@H](O)C(F)(F)F)c2ccccc21 [Example 33, (R)-3-((R)-4-(2-methylbenzyl)-2-(3-(trifluoromethyl)phenyl)-3,4-dihydroquinoxalin-1(2H)-yl)-1,1,1-trifluoro propan-2-ol]
IC50 (Table 1, read-out: IC50): 0.428 µM

O[C@H](CN1c2ccccc2N(Cc2cccc(Cl)c2Cl)C[C@H]1c1cccc(C(F)(F)F)c1)C(F)(F)F [Example 34, (R)-3-((R)-4-(2,3-dichlorobenzyl)-2-(3-(trifluoromethyl)phenyl)-3,4-dihydroquinoxalin-1(2H)-yl)-1,1,1-trifluoro propan-2-ol]
IC50 (Table 1, read-out: IC50): 0.169 µM

O[C@H](CN1c2ccccc2N(Cc2c(Cl)cccc2Cl)C[C@H]1c1cccc(C(F)(F)F)c1)C(F)(F)F [Example 35, (R)-3-((R)-4-(2,6-dichlorobenzyl)-2-(3-(trifluoromethyl)phenyl)-3,4-dihydroquinoxalin-1(2H)-yl)-1,1,1-trifluoro propan-2-ol]
IC50 (Table 1, read-out: IC50): 1.16 µM

O[C@H](CN1c2ccccc2N(CC2CCCCC2)C[C@H]1c1cccc(C(F)(F)F)c1)C(F)(F)F [Example 37, (R)-3-((R)-4-(cyclohexylmethyl)-2-(3-(trifluoromethyl)phenyl)-3,4-dihydroquinoxalin-1(2H)-yl)-1,1,1-trifluoro propan-2-ol]
IC50 (Table 1, read-out: IC50): 1.27 µM

O[C@H](CN1c2ccccc2N(Cc2ccsc2)C[C@H]1c1cccc(C(F)(F)F)c1)C(F)(F)F [Example 38, (R)-3-((R)-4-(thiophenyl-3-ylmethyl)-2-(3-(trifluoromethyl)phenyl)3,4-dihydroquinoxalin-1(2H)-yl)-1,1,1-trifluoropropan-2-ol]
IC50 (Table 1, read-out: IC50): 0.461 µM

O[C@H](CN1c2ccccc2N(Cc2ccc(Cl)cc2)C[C@H]1c1cccc(C(F)(F)F)c1)C(F)(F)F [Example 39, (2R)-3-(4-(4-chlorobenzyl)-2-(3-(trifluoromethyl)phenyl)-3,4-dihydroquinoxalin-1(2H)-yl)-1,1,1-trifluoropropan-2-ol]
IC50 (Table 1, read-out: IC50): 0.548 µM

O[C@H](CN1c2ccccc2N(Cc2cccc(C(F)(F)F)c2)C[C@H]1c1cccc(C(F)(F)F)c1)C(F)(F)F [Example 40, (2R)-1,1,1-trifluoro-3-(4-(3-(trifluoromethyl)benzyl)-2-(3-(trifluoromethyl)phenyl)-3,4-dihydroquinoxalin-1(2H)-yl)propan-2-ol]
IC50 (Table 1, read-out: IC50): 0.0571 µM

O[C@H](CN1c2ccccc2N(Cc2cc(F)cc(C(F)(F)F)c2)C[C@H]1c1cccc(C(F)(F)F)c1)C(F)(F)F [Example 41, (2R)-1,1,1-trifluoro-3-(4-(3-fluoro-5-(trifluoromethyl)benzyl)-2-(3-(trifluoromethyl)phenyl)-3,4-dihydroquinoxalin-1(2H)-yl)propan-2-ol]
IC50 (Table 1, read-out: IC50): 0.0452 µM

CCc1cc(CN2C[C@@H](c3cccc(C(F)(F)F)c3)N(C[C@@H](O)C(F)(F)F)c3ccccc32)ccc1Cl [Example 42, (2R)-3-(4-(4-chloro-3-ethylbenzyl)-2-(3-(trifluoromethyl)phenyl)-3,4-dihydroquinoxalin-1(2H)-yl)-1,1,1-trifluoropropan-2-ol]
IC50 (Table 1, read-out: IC50): 0.0451 µM

Cc1ccc(C(F)(F)F)cc1CN1C[C@@H](c2cccc(C(F)(F)F)c2)N(C[C@@H](O)C(F)(F)F)c2ccccc21 [Example 43, (2R)-1,1,1-trifluoro-3-(4-(2-methyl-5-(trifluoromethyl)benzyl)-2-(3-(trifluoromethyl)phenyl)-3,4-dihydroquinoxalin-1(2H)-yl)propan-2-ol]
IC50 (Table 1, read-out: IC50): 0.27 µM

Cc1cccc(CN2C[C@@H](c3cccc(C(F)(F)F)c3)N(C[C@@H](O)C(F)(F)F)c3ccccc32)n1 [Example 44]
IC50 (Table 1, read-out: IC50): 0.46 µM

O[C@H](CN1c2ccccc2N(Cc2cccc(OC(F)(F)F)c2)C[C@H]1c1ccc(Cl)cc1)C(F)(F)F [Example 49]
IC50 (Table 1, read-out: IC50): 0.02 µM

COc1cc2ccc([C@@H]3CN(Cc4cccc(OC(F)(F)F)c4)c4ccccc4N3C[C@@H](O)C(F)(F)F)cc2cc1OC [Example 50]
IC50 (Table 1, read-out: IC50): 0.193 µM

O[C@H](CN1c2ccccc2N(Cc2cccc(OC(F)(F)F)c2)C[C@H]1c1ccc2c(c1)OCCO2)C(F)(F)F [Example 51]
IC50 (Table 1, read-out: IC50): 0.209 µM

O[C@H](CN1c2ccccc2N(Cc2cccc(OC(F)(F)F)c2)C[C@H]1c1ccc(F)cc1)C(F)(F)F [Example 52]
IC50 (Table 1, read-out: IC50): 0.682 µM

Cc1ccc([C@@H]2CN(Cc3cccc(OC(F)(F)F)c3)c3ccccc3N2C[C@@H](O)C(F)(F)F)cc1 [Example 53]
IC50 (Table 1, read-out: IC50): 0.056 µM

COc1ccc([C@@H]2CN(Cc3cccc(OC(F)(F)F)c3)c3ccccc3N2C[C@@H](O)C(F)(F)F)cc1 [Example 54]
IC50 (Table 1, read-out: IC50): 0.069 µM

O[C@H](CN1c2ccccc2N(C2C=Cc3ccccc32)CC1c1cccc(OC(F)(F)C(F)F)c1)C(F)(F)F (stereo partly drawn) [Example 56, (2R)-3(4-(1H-inden-1-yl))-2-(3-(1,1,2,2,- tetrafluoroethoxy)phenyl)-3,4-dihydroquinoxalin-1(2H)-yl-1,1,1-trifluoropropan-2-ol]
IC50 (Table 1, read-out: IC50): 0.011 µM
